We go through three compounds from patent US12419852B2, “Method for treating lysosomal storage disease” (Exerkine Corporation, priority 2018, dated 2025).

The conditions of data set [1]: Pompe disease, 2 weeks after the infusion; cited from earlier work.
The test system of data set [2] is autophagic buildup in skeletal muscle of GAA knockout mice. In words: Autophagic buildup scored on electron micrographs of skeletal muscle. The following applies: skeletal muscle electron micrographs after 8 weeks; 0=no buildup to 3=severe, 7 micrographs; FIG. 2A. It is filed as in vivo. Here is the method: (§1) Experimental groups All mice were fed standard rodent chow (chow diet; Harlan Teklad 8640 22/5), as a base diet with the exception of the group receiving a conventional […] diet (% kcal of SRT diet being 93.2% fat, 6.4% protein and 0.4% carbohydrates; Envigo, TD.07797). […]
(§2) Grip strength, motor coordination, and balance were evaluated prior to the introduction of the experimental diets. Motor coordination and balance were evaluated using a rotarod apparatus (Harvard Apparatus, MA), while forelimb grip strength was evaluated using a metal gripping bar attached to a DFIS-10 Chatillon digital force gage. Upon completion of the baseline testing, all groups were administered their respective experimental diets for a period of 8 weeks, when grip strength, motor coordination, and balance were re-evaluated as endpoint measures. […] The proteins p62, ubiquitin and mitochondrial complexes 1-5 were evaluated in quadriceps muscle using the following antibodies in 5% milk: p62 (Cell Signalling, Cat. #51145), ubiquitin (Enzo Life Sciences, Cat. #UG95100100) and Total OXPHOS Rodent WB Antibody Cocktail (Abcam, Cat. #ab110413). Autophagic buildup was determined using electron micrographs generated by the McMaster Electron Microscopy Facility. […]

In data set [3] the test system is mitochondrial complexes 1-5. In words: Western blotting for mitochondrial complexes 1-5 protein in quadriceps muscle. The format is in vivo, mice. As to conditions: western blot, range over the five complexes, FIGS. 3B-F. Here is the method:
as §1, §2

In data set [4] the test system is p62 protein. In words: Western blotting for p62 in quadriceps muscle. The format is in vivo, mice. The following applies: western blot, after 8 weeks, FIG. 2B. On the procedure: as §1, §2
Data set [5] relates to Complex IV enzyme activity. In words: Complex IV (COX IV) enzymatic activity in quadriceps muscle. The following applies: skeletal muscle, after 8 weeks. The format is in vivo, mice.
Description: as §1
To measure COX IV enzymatic activity, quadriceps muscle was homogenized in Lysing Matrix D tubes (MP Biomedicals, Solon, OH, USA) using the FastPrep-24 Tissue and Cell Homogenizer (MP Biomedicals, Solon, OH, USA) for 5×5-second cycles at a speed of 4.0 m/s with samples placed on ice for 5 minutes between cycles. […] The rate of oxidation of reduced cytochrome c was measured at 550 nm for 3 min at 37° C.

Data set [6] deals with GAA knockout mice. In words: Forelimb grip strength in GAA knockout mice (Pompe disease model). It is filed as in vivo. As to conditions: change over the 8 week period, FIG. 1A. On the procedure:
(§3) To determine if the ketogenic agent and enhanced ketogenic composition could improve autophagic activity, muscle function and mitochondrial capacity in mice having a lysosomal storage disease, mice lacking the acid alpha glucosidase (GAA) protein (an established mouse model of Pompe disease) were administered the ketogenic agent, the enhanced ketogenic composition or one of several control diets for a period of 8 weeks.
(§4) Breeding of GAA mice. Four GAA heterozygous breeding pairs (HET; GAA−/+; 6neo/6+) were obtained from Jackson Laboratories (Maine, USA) to generate homozygous GAA knock-outs (GAA; GAA−/−; 6neo/6neo). Mice were housed at McMaster University's Central Animal Facility in standard cages in 12-h light/dark cycles with ad libitum access to water and their respective diets. […]
(§5) Grip strength, motor coordination, and balance were evaluated prior to the introduction of the experimental diets. Motor coordination and balance were evaluated using a rotarod apparatus (Harvard Apparatus, MA), while forelimb grip strength was evaluated using a metal gripping bar attached to a DFIS-10 Chatillon digital force gage. Upon completion of the baseline testing, all groups were administered their respective experimental diets for a period of 8 weeks, when grip strength, motor coordination, and balance were re-evaluated as endpoint measures. […]

The subject of data set [7] is GAA knockout mice. Kind of data set: Rotarod performance (motor coordination and balance) in GAA knockout mice. The format is in vivo. The following applies: change over 8 weeks, FIG. 1B. Here is the method:
as §3, §4, §5

For “recombinant GAA protein: Infused recombinant acid alpha-glucosidase (GAA) protein used as enzyme replacement therapy in Pompe disease”, the “fraction of infused protein retained within skeletal muscle” value in data set [1] is recorded as 1-3%.

Consider “ERT: Enzyme replacement therapy: bi-weekly intravenous injections of 40 mg/kg recombinant GAA enzyme (Myozyme; Genzyme)”, for which, in data set [2], the “autophagic buildup score (per mouse total score out of 21)” value is reported as 15/21. Besides, the “protein levels of mitochondrial complexes 1-5 higher compared to WT CON” value in data set [3] is 103-250%. Also, the “p62 protein expression lower than GAA CON group” value in data set [4] is given as 23%. Further, the “ratio of mean complex IV enzyme activity to mean complex IV protein content, lower compared to WT CON” value in data set [5] is given as 43%. Besides, the “decline in forelimb grip strength” value in data set [6] came out at 20%. Also, the “improvement in duration of time able to balance on the rotarod apparatus” value in data set [7] is given as “little or no change”.

Consider `CC(O)CCO` (stereo not shown) [ERT+1,3 BD, 1,3 butanediol], for which, in data set [2], the “autophagic buildup score (per mouse total score out of 21)” value is 12/21. In data set [3], the “protein levels of mitochondrial complexes 1-5 higher compared to WT CON” value is 219-647%. Moreover, the “p62 protein expression lower than GAA CON group” value in data set [4] was determined as 59%. In data set [5], the “ratio of mean complex IV enzyme activity to mean complex IV protein content, lower compared to WT CON” value is on record as 41%. Also, the “decline in forelimb grip strength” value in data set [6] is given as “relatively unchanged”. Further, the “improvement in duration of time able to balance on the rotarod apparatus” value in data set [7] is 46%.
